Source: US7709600B2, “Interaction between the VHL tumor suppressor and hypoxia inducible factor, and assay methods relating thereto” (Isis Innovation Limited, priority 1999, dated 2010)
Read-outs that look alike come from different tables or passages of the source.

Key:
pVHL/HIF-1 complex = pVHL/HIF-1 complex (Homo sapiens, UniProt P40337+Q16665); test: EMSA / anti-pVHL supershift of the HIF-1 DNA binding complex from treated RCC4/VHL cells; conditions: for HIF-1 complex species seen in EMSA: RCC4/VHL cells cultured four hours, 100 μM
pVHL-HIF-1α interaction [1] = target: pVHL-HIF-1α interaction (Homo sapiens, UniProt P40337+Q16665); test: pVHL interaction with HIF-1α sequences translated in reticulocyte lysate in the presence of metal ions; assay type: binding
[2] = system: pVHL interaction with HIF-1α and HIF-2α; test: Anti-pVHL immunoprecipitation of RCC4/VHL cell extracts, immunoblot for HIF α subunits; conditions: treated RCC4/VHL cells, compared with hypoxic cells
HIF-1α = test: In vitro ubiquitylation assay for HIF-1α; assay type: biochemical, human
Description: To test the hypothesis that pVHL is a necessary component of a ubiquitin ligase complex recognising HIF-α we developed an in vitro ubiquitylation assay for HIF-1α. In this assay, cell extracts (initially from Cos-7) were incubated with [^35S]labelled HIF-1α prepared in vitro in reticulocyte lysates. This was used as substrate in reactions with different combinations of extract, an ATP-regenerating system, ubiquitin aldehyde, and methylated ubiquitin. Reactions were incubated at 30° C. for 270 minutes before analysis by SDS-PAGE.
Incubation with extract alone converted the HIF-1α substrate to a slower migrating form, an effect which was enhanced by an ATP-regenerating system, and was prevented by addition of the protein kinase inhibitor 2-aminopurine. […] This assignment was confirmed by enhancement with addition of ubiquitin aldehyde, an isopeptidase inhibitor that prevents the breakdown of ubiquitin conjugates.
An experiment similar to that of section (h) above was performed but with the omission of ubiquitin aldehyde. pVHL was generated by in vitro transcription translation, and HIF-1α was also generated in reticulocyte lysate in the presence or absence of 100 μM Fe2+ and Fe3+. […] Thus assays of the invention may be used for the identification of compounds acting at a point distal to the HIF-pVHL interaction (i.e. not altering binding but interfering with tagging or destruction). It also provides further evidence for modifications of HIF influencing its ability to bind pVHL. […]
In vitro ubiquitylation assay. […] Aliquots were removed at indicated times, mixed with SDS sample buffer and analysed by SDS-PAGE and autoradiography. Gels were quantitated using a Storm 840 PhosphorImager (Molecular Dynamics).

pVHL-HIF-1α interaction [3] = test: pVHL interaction with HIF-1α sequences translated in reticulocyte lysate in the presence of metal ions; assay type: binding, human; conditions: subsequences 556-574, 549-574, 556-582, 549-582; 100 μM Fe2+ and 100 μM Fe3+
[4] = full HIF-1α, 100 μM ion during translation

| Compound | HIF-1 complex species seen in EMSA (pVHL/HIF-1 complex) | interaction of pVHL with HIF-1α translated in the presence of the ion (pVHL-HIF-1α interaction [1]; [4]) | HIF-1α and HIF-2α contained in anti-pVHL immunoprecipitates [2] | also measured |
| --- | --- | --- | --- | --- |
| [Cl-].[Cl-].[Co+2] [cobalt, cobaltous chloride] | only the faster mobility HIF-1 complex | diminishes | neither protein was contained | – |
| [Ni+2] [nickel] | – | – | – | interaction of pVHL with HIF-1α translated in the presence of the ion (pVHL-HIF-1α interaction [1]): diminishes |
| CC(=O)N(O)CCCCCNC(=O)CCC(=O)N(O)CCCCCNC(=O)CCC(=O)N(O)CCCCCN [desferrioxamine] | only the faster mobility HIF-1 complex | – | neither protein was contained | pVHL/HIF-1 complex forming (pVHL/HIF-1 complex; treatment four hours prior to hypoxia): prevented |
| Nc1ncc2[nH]cnc2n1 [2-aminopurine] | – | – | – | conversion of HIF-1α substrate to a slower migrating form (phosphorylation) (HIF-1α; Cos-7 cell extract, 30° C.): prevented |
| ubiquitin aldehyde | – | – | – | generation of high molecular weight polyubiquitylated HIF-1α species (HIF-1α; Cos-7 cell extract, 30° C., 270 minutes): enhancement |
| iron | – | enhances | – | ubiquitylation of HIF-1α produced in the presence of the ions (HIF-1α; HIF-1α generated in reticulocyte lysate with 100 μM Fe2+ and Fe3+, ubiquitin aldehyde omitted): Enhanced ubiquitylation; amount of interaction of pVHL with HIF-1 subsequences (pVHL-HIF-1α interaction [3]): substantial increase |
